What is called inhibition is the relative decrease from the control value, in per cent.

SMILES strings stand for the structures. Where two headings read alike, the source gives them in different places.

These results are taken from patent US6509163B1, “Methods of screening modulators of mammalian P2X7 purinergic receptors” (Glaxo Group Limited, priority 1997, dated 2003).

Common to all, as to format: cell-based
Assay [1] has as its target T1, P2X7 receptor (Rattus norvegicus, UniProt Q64663).
T1 construct: yielding a construct that encoded the entire P2X7 protein; expressed in transfected cells
T1 sequence (Q64663 1-595): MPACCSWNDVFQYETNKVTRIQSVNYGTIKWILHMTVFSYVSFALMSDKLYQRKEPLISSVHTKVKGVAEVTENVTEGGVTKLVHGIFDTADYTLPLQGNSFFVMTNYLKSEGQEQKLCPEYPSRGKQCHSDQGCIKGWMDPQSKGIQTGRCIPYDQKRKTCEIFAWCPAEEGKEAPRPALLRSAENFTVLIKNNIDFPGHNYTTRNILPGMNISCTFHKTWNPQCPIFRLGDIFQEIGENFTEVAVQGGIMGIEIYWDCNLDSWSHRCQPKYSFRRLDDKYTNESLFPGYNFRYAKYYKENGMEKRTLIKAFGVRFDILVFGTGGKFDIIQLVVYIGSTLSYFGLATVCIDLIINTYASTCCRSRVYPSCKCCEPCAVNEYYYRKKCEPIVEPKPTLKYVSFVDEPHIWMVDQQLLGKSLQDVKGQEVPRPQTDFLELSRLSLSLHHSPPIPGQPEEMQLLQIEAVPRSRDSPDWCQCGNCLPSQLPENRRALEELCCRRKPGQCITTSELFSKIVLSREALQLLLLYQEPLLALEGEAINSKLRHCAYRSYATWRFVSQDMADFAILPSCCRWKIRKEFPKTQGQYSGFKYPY
The assay is described as follows: Whole-cell recordings of agonist-evoked currents in HEK293 cells transfected with rat P2X7 cDNA (Example 2). The conditions noted are these: for agonist effect (evoking inward current): concentration 300 to 1000 μM; for EC50: read-out: EC50 (half-maximal concentration) for current. How it is done:
(§1) Whole-cell recordings were obtained at room temperature from HEK293 cells transiently or stably transfected with P2X7 cDNA, from HEK293 cells transiently transfected with P2X7ΔC cDNA, and from J774A.1 cells (American Type Culture Collection, Rockville, Md.). Agonist were applied for periods of 1 to 3 s by a fast-flow U-tube delivery system (Fenwick et al, J. Physiol. (London) 331:577 (1982)). The internal pipette solution was 140 mM cesium-aspartate or potassium-aspartate, 20 mM NaCl, 10 mM EGTA, and 5 mM Hepes: normal external solution was 145 mM NaCl, 2 mM KCl, 2 mM CaCl2, 1 mM MgCl2, 10 mM Hepes, and 12 mM glucose. Low divalent external solution was nominally magnesium-free with 0.3 mM CaCl2. For cells expressing P2X7 receptors and J774 cells, concentration-response curves were constructed in low divalent solution by recording currents in response to 1-s applications of agonist at 8-min intervals with normal external solution present for 6 min before each application. This protocol was necessary to prevent the development of sustained inward currents. Lipofectin was used for transfection (Buell et al, EMBO J. 15:55 (1996)).
Reversal potentals (Erev) were obtained by application of ATP (300 μM) or BzATP (30 μM) while the membrane was held at various potentals or by application of voltage ramps from −120 to 30 or 50 mV. Permeability ratios from (Erev) were calculated by first computing α (=Pna/PK, where P is permeability) for internal (i) and external (o) concentrations [Na]i=20 mM, [Na]o=145 mM, [Ko]=0 mM, and [K]i=140 mM from α={[145/exp(Erev)F/RT −20]}/140 (where F is the Faraday, R is the gas constant, and T is the absolute temperature). Other PK/PNa values, when [X]o=145 mM, [Na]i=20 mM, [K]i=140 mM, and [Na]o=[K]o=[X]i=0 mM, were computed from PK/PNa={[exp (ErevF/RT) (20=140α)}/145. In order of size (FIG. 3C), X was cesium, methylamine, tris(hydroxymethyl)-aminomethane, tetraethylammonium, and N-methyl-D-glucamine. The internal solution also contained 10 mM EGTA and 5 mM Hepes. External solutions also contained 10 mM glucose and normal or low concentrations of divalent cations; pH was maintained at 7.3 with HCl, histidine, or Hepes as required, and the osmolarity of all solutions was 295 to 315.

The next assay addresses T2, rP2X7 receptor (Rattus norvegicus, UniProt Q64663).
T2 construct: yielding a construct that encoded the entire P2X7 protein; expressed in transfected cells
T2 sequence (Q64663 1-595): T1 sequence (Q64663 1-595)
As to the kind of experiment: Whole-cell recordings in HEK293 cells transiently transfected with rP2X7 receptors (Example 3). How it is done: (§2) Cell culture. HEK293 cells were transiently transfected with cDNA (1 μg/ml) and lipofectin dissolved in Optimem (GIBCO) placed into petri dishes containing four coverslips onto which cells were plated at a density of about 8×10^4/coverslip. Cells were washed 5 h later and normal DMEM applied. Electrophysiological studies or dye uptake measurements were carried out 18-49 h later. For each set of transfections, parallel experiments were performed on HEK cells transfected with cDNA encoding both rP2X7 and hP2X7 receptors.
(§3) Electrophysiological experiments. Whole-cell recordings were made using the EPC9 patch-clamp amplifier and Pulse acquisition programs (HEKA, Lambrecht, Germany). Patch pipettes (5-7 MΩ) contained (mM) CsCl or NaCl 154, EGTA 10, HEPES 5. The normal extracellular solution contained (mM) NaCg 147, KCl2, CaCl2 2, MgCl2 1, HEPES 10 and glucose 12, and the “low divalent” solution had no magnesium and 0.3 mM CaCl2. Agonists were delivered by U-tube delivery system; antagonists, when applied, were present in both superfusion and U-tube. Experiments were carried out at room temperature.

In assay [2] the target is T1, P2X7 receptor. As to the kind of experiment: Whole-cell recordings of agonist-evoked currents in HEK293 cells transfected with rat P2X7 cDNA (Example 2). The conditions noted are these: inward currents, brief application (0.5 to 2 s).
Another assay deals with T3, hP2X7 receptor (Homo sapiens, UniProt Q99572).
T3 construct: a clone containing the complete open reading frame of the hP2X7 receptor was constructed; expressed in transfected cells; host or cells: HEK293 (transient), pcDNA3
T3 sequence (Q99572 1-595): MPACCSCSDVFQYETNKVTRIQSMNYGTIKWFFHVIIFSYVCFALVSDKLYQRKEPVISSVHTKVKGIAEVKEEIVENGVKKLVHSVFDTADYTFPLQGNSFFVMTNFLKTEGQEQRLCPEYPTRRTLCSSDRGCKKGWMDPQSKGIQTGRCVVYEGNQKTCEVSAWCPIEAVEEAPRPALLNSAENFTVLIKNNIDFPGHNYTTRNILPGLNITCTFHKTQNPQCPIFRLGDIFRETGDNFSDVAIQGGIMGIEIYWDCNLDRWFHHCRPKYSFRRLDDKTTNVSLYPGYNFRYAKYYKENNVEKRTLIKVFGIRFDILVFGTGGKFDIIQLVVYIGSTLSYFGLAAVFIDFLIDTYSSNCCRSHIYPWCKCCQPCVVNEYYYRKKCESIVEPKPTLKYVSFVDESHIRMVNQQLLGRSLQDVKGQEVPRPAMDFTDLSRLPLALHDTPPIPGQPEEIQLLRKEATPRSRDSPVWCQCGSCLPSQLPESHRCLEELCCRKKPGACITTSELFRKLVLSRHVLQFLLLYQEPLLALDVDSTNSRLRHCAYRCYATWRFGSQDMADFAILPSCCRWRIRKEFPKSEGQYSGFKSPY
The assay is described as follows: Whole-cell recordings in HEK293 cells transiently transfected with hP2X7 receptors (Example 3). How it is done:
as §2, §3

The next assay deals with J774 cells. The assay is described as follows: Whole-cell recordings of BzATP-evoked currents in J774 macrophage cells. To be noted: three J774 cells; read-out: half-maximal inhibition of currents evoked by 30 μM BzATP. How it is done:
as §1

The mark [3] stands for this setting: vs 30 μM BzATP, n=3, read-out: concentration causing half-maximal inhibition of currents.
The mark [4] stands for this setting: percentage of value in 1 mM magnesium.

Regarding `NC(N)=NC(=O)c1nc(Cl)c(N2CCCCCC2)nc1N` [hexamethylene amiloride], on P2X7 receptor [1] (100 μM, n=6), the “blocking current evoked by 30 μM BzATP” value was “ineffective”.
`Cc1ccc(C(=O)Nc2ccc(S(=O)(=O)O)c3cc(S(=O)(=O)O)cc(S(=O)(=O)O)c23)cc1NC(=O)c1cccc(NC(=O)Nc2cccc(C(=O)Nc3cc(C(=O)Nc4ccc(S(=O)(=O)O)c5cc(S(=O)(=O)O)cc(S(=O)(=O)O)c45)ccc3C)c2)c1` [suramin]: at P2X7 receptor [1] (read-out: inhibition of currents evoked by 30 μM BzATP), the inhibition at 300 µM was in the range of 15 to 38%. Moreover, on rP2X7 receptor (setting [3]), the IC50 turned out to be 78 ± 3 µM.
As for `Nc1ncnc2c1ncn2[C@@H]1O[C@H](COP(=O)(O)OP(=O)(O)OP(O)(O)=S)[C@@H](O)[C@H]1O` [ATP-γ-S], the “agonist order of potency” value on P2X7 receptor [2] is recorded as “BzATP>>ATP>2MeSATP>ATP-γ-S>>ADP”.
`O=c1ccn([C@@H]2O[C@H](COP(=O)(O)OP(=O)(O)OP(=O)(O)O)[C@@H](O)[C@H]2O)c(=O)[nH]1` [UTP]: the “agonist effect (evoking inward current)” value on P2X7 receptor [1] is listed as “ineffective”.
Regarding `Nc1ncnc2c1ncn2[C@@H]1O[C@H](COP(=O)(O)OP(=O)(O)OP(=O)(O)O)[C@@H](O)[C@H]1O` [ATP], the EC50 at P2X7 receptor [1] (normal solution (2 mM CaCl2, 1 mM MgCl2), n=4) came out at 115 ± 9 µM; at P2X7 receptor [1] (zero magnesium, n=7) it was 85 ± 8 µM. Moreover, on hP2X7 receptor, the “EC50 at hP2X7 relative to rP2X7 receptor (fold greater)” value is “about 10 fold”. For the same molecule, the “agonist order of potency” value on P2X7 receptor [2] was “BzATP>>ATP>2MeSATP>ATP-γ-S>>ADP”.
As to `[Mg+2]` [magnesium], the IC50 at hP2X7 receptor (currents evoked by 300 μM BzATP, read-out: concentration of magnesium causing half-maximal inhibition of the current) came to 212 µM; at rP2X7 receptor (currents evoked by 30 μM BzATP, read-out: concentration of magnesium causing half-maximal inhibition of the current), 780 µM. Also, the “increase of currents on removal of external magnesium” value on hP2X7 receptor (setting [4]) was 670±80%; on rP2X7 receptor (setting [4]) it was 420±84%.
As for `CSc1nc(N)c2ncn([C@@H]3O[C@H](COP(=O)(O)OP(=O)(O)OP(=O)(O)O)[C@@H](O)[C@H]3O)c2n1` [2MeSATP], the “agonist order of potency” value on P2X7 receptor [2] is on record as “BzATP>>ATP>2MeSATP>ATP-γ-S>>ADP”.
On to `Nc1ncnc2c1ncn2[C@@H]1O[C@H](COP(=O)(O)CP(=O)(O)OP(=O)(O)O)[C@@H](O)[C@H]1O` [αβ-methylene ATP], for which the “agonist effect (evoking inward current)” value at P2X7 receptor [1] is recorded as “ineffective”.
For the molecule `Nc1ncnc2c1ncn2[C@@H](C=O)O[C@@H](C=O)COP(=O)(O)OP(=O)(O)OP(=O)(O)O` [Oxidized ATP], on P2X7 receptor [1] (100 μM, cells preincubated for 1 to 2 hours, n=5), the “block of currents evoked by 30 μM BzATP” value is given as “irreversibly blocked currents”.
With `Nc1ncnc2c1ncn2[C@@H]1O[C@H](COP(=O)(O)OP(=O)(O)O)[C@@H](O)[C@H]1O` [ADP], on P2X7 receptor [2], the “agonist order of potency” value is given as “BzATP>>ATP>2MeSATP>ATP-γ-S>>ADP”.
As to `Nc1ncnc2c1ncn2[C@@H]1O[C@H](CO)[C@@H](O)[C@H]1O` [adenosine], the “agonist effect (evoking inward current)” value on P2X7 receptor [1] was “ineffective”.
In the case of `Nc1ncnc2c1ncn2[C@@H]1O[C@H](COP(=O)(O)OP(=O)(O)CP(=O)(O)O)[C@@H](O)[C@H]1O` [βγ-methylene ATP], the “agonist effect (evoking inward current)” value on P2X7 receptor [1] is listed as “ineffective”.
Turning to `Cc1nc(N=Nc2ccc(S(=O)(=O)O)cc2S(=O)(=O)O)c(COP(=O)(O)O)c(C=O)c1O` [PPADS, pyridoxal 5-phosphate-6-azophenyl 2′4′-disulfonic acid], the IC50 at P2X7 receptor [1] (four HEK cells, read-out: half-maximal inhibition of currents evoked by 30 μM BzATP) turned out to be 45 ± 8 µM; in the assay with J774 cells it was 60 ± 9 µM; at rP2X7 receptor (setting [3]) it was 51 ± 4 µM.
